# Test results published in patent publication US4460596A, “Thienyloxazolylacetic acid derivatives and process for preparing” (Tanabe Seiyaku Co., Ltd., priority 1981, dated 1984).
# Columns and labels:
# [1] = test system: serum cholesterol and serum triglyceride; assay: Hypolipidemic activity in rats (serum cholesterol and triglyceride, one-week diet); format: in vivo; details: male SD rats, 50 mg % in diet
# Protocol: (§1) A test compound (50 mg %) was added to a commercial diet, and male SD rats (body weight: 120-140 g, a group of 5 rats) were fed with the diet ad libitum for one week. After the experimental period, blood was collected from the tail vein of the rats under ether anesthesia. Serum cholesterol and serum triglyceride were measured according to the methods of Zak (Amer. J. Clin. Pathol., Vol. 24, page 1307(1954)) and Van Handel-Zilversmit (J. Lab. & Clin. Med., Vol. 55, page 152(1957)), respectively. Then, the increase (%) in liver weight and the decrease (%) in serum cholesterol or triglyceride were calculated according to the following formulae: [formula]
# blood platelets (PRP) = assay: Platelet aggregation-inhibiting activity in vitro (collagen, rat platelet-rich plasma); format: cell-based, male SD rats; details: final concentration 100 μg/ml, 37° C.
# Protocol: (Platelet aggregation-inhibiting activity)
# Blood was collected from the abdominal aorta of male SD rats (body weight: 250-300 g) which were anesthetized with ether. Nine volumes of said blood were mixed with one volume of an aqueous 3.8% (w/v) trisodium citrate solution, and the mixture was centrifuged at 500×g for 5 minutes to give platelet-rich plasma (hereinafter referred to as "PRP") as the supernatant solution. The bottom layer was further centrifuged at 1000×g for 10 minutes to give platelet-poor plasma (hereinafter referred to as "PPP") as the supernatant solution. PRP was diluted with PPP so that the blood platelet count was 8-10×10^5 /mm^3. Then, a mixture of 200 μl of said diluted PRP and 25 μl of a test compound solution (final concentration: 100 μg/ml) was introduced into a glass cell of SIENCO aggregometer (Sienco Inc., Morrison, Colo. Model DP-247-D). After the mixture was stirred at 1100 rpm at 37° C. for 2 minutes, 25 μl of a collagen solution (prepared by Holmsen's method described in Biochim. Biophys. Acta, Vol. 186, page 254(1969)) was added thereto, and the percentage inhibition of platelet aggregation was calculated in accordance with the following formula from the degree of the platelet aggregation which was estimated by Born's method (Nature, 194, page 927([…])). [formula]
# platelet aggregation = assay: Platelet aggregation-inhibiting activity after oral administration (ex vivo); format: in vivo; details: 100 mg/kg, one hour after administration, male SD rats, collagen
# [2] = Increase in liver weight in rats (one-week diet); format: in vivo; details: male SD rats, 50 mg % in diet
# Protocol: as §1
Structure (SMILES),Decrease (%) in serum cholesterol [1] [%],Decrease (%) in serum triglyceride [1] [%],inhibition at 100 µg/mL (blood platelets (PRP)) [%],Percentage inhibition of platelet aggregation (platelet aggregation) [%],increase (%) in liver weight [2] [%]
CCCCCOC(=O)Cc1nc(-c2ccccc2)oc1-c1ccsc1 [n-pentyl 2-[2-phenyl-5-(3-thienyl)-4-oxazolyl]acetate],20,30,≥ 10,,
O=C(O)Cc1nc(-c2ccc(Cl)cc2)oc1-c1ccsc1 [2-[2-(4-chlorophenyl)-5-(3-thienyl)-4-oxazolyl]acetic acid],18,49,≥ 10,,
CCCCCOC(=O)Cc1nc(-c2ccc(Cl)cc2)oc1-c1ccsc1 [n-pentyl 2-[2-(4-chlorophenyl)-5-(3-thienyl)-4-oxazolyl]acetate],19,45,,,
O=C(O)Cc1nc(-c2ccc(F)cc2)oc1-c1ccsc1 [2-[2-(4-fluorophenyl)-5-(3-thienyl)-4-oxazolyl]acetic acid],23,39,≥ 10,93 ± 6,
"CCOC(=O)C(C)(C)Oc1ccc(Cl)cc1 [Clofibrate, 2-(4-chlorophenoxy)-2-methylpropanoic acid ethyl ester, reference compound]",15,16,< 10,,12
CCOC(=O)Cc1nc(-c2ccc(F)cc2)oc1-c1ccsc1 [ethyl 2-[2-(4-fluorophenyl)-5-(3-thienyl)-4-oxazolyl]acetate],19,31,≥ 10,,
CCOC(=O)Cc1nc(-c2ccc(F)cc2)oc1-c1cccs1 [ethyl 2-[2-(4-fluorophenyl)-5-(2-thienyl)-4-oxazolyl]acetate],17,43,≥ 10,,
O=C(O)Cc1nc(-c2ccc(F)cc2)oc1-c1cccs1 [2-[2-(4-fluorophenyl)-5-(2-thienyl)-4-oxazolyl]acetic acid],17,27,≥ 10,,
